Experimental data as given in ChEMBL document CHEMBL3046515, “Zn(Proline)2-catalyzed Knoevenagel condensation under solvent-free/aqueous conditions and biological evaluation of products” (2011).
Calls of active or inactive are those of the source. The rule behind the calls is not given here.

Tests used:
Staphylococcus aureus [1] = test: Antibacterial activity against Staphylococcus aureus SA 22 at 100 ug/ml after 24 hr by filter paper disk method; format: functional; details: for zone of inhibition at 100 µg/mL: SA 22, 24 h, read-out: DIZ
Bacillus subtilis [2] = test: Antibacterial activity against Bacillus subtilis MTCC 121 at 100 ug/ml after 24 hr by filter paper disk method; format: functional; details: for zone of inhibition at 100 µg/mL: MTCC 121, 24 h, read-out: DIZ
Aspergillus fumigatus [3] = test: Antifungal activity against Aspergillus fumigatus at 100 ug/ml after 72 hr; format: functional; details: for zone of inhibition at 100 µg/mL: read-out: DIZ
Salmonella typhimurium [4] = test: Antibacterial activity against Salmonella enterica subsp. enterica serovar Typhimurium MTCC 98 at 100 ug/ml after 24 hr by filter paper disk method; format: functional; details: for zone of inhibition at 100 µg/mL: MTCC 98, 24 h, read-out: DIZ
Aspergillus niger [5] = test: Antifungal activity against Aspergillus niger at 100 ug/ml after 72 hr; format: functional; details: for zone of inhibition at 100 µg/mL: read-out: DIZ
Escherichia coli [6] = test: Antibacterial activity against Escherichia coli K-12 at 100 ug/ml after 24 hr by filter paper disk method; format: functional; details: for zone of inhibition at 100 µg/mL: K-12, 24 h, read-out: DIZ
Candida albicans [7] = test: Antifungal activity against Candida albicans at 100 ug/ml after 18 to 48 hr; format: functional; details: for zone of inhibition at 100 µg/mL: read-out: DIZ
Candida albicans [8] = test: Antifungal activity against Candida albicans at 30 ug/disk after 18 to 48 hr; format: functional, organism-based
Aspergillus fumigatus [9] = test: Antifungal activity against Aspergillus fumigatus at 30 ug/disk after 72 hr; format: functional, organism-based
Aspergillus niger [10] = test: Antifungal activity against Aspergillus niger at 30 ug/disk after 72 hr; format: functional, organism-based
Staphylococcus aureus [11] = test: Antibacterial activity against Staphylococcus aureus SA 22 at 30 ug/disc after 24 hr by filter paper disk method; format: functional; details: SA 22, 24 h, read-out: DIZ
Salmonella typhimurium [12] = test: Antibacterial activity against Salmonella enterica subsp. enterica serovar Typhimurium MTCC 98 at 30 ug/disc after 24 hr by filter paper disk method; format: functional; details: MTCC 98, 24 h, read-out: DIZ
Escherichia coli [13] = test: Antibacterial activity against Escherichia coli K-12 at 30 ug/disc after 24 hr by filter paper disk method; format: functional; details: K-12, 24 h, read-out: DIZ
Bacillus subtilis [14] = test: Antibacterial activity against Bacillus subtilis MTCC 121 at 30 ug/disk after 24 hr by filter paper disk method; format: functional; details: MTCC 121, 24 h, read-out: DIZ

Compound	zone of inhibition at 100 µg/mL (Bacillus subtilis [2]) [mm]	zone of inhibition at 100 µg/mL (Aspergillus fumigatus [3]) [mm]	zone of inhibition at 100 µg/mL (Salmonella typhimurium [4]) [mm]	zone of inhibition at 100 µg/mL (Aspergillus niger [5]) [mm]	zone of inhibition at 100 µg/mL (Escherichia coli [6]) [mm]	diameter of the inhibition zone (DIZ) (Candida albicans [7])	zone of inhibition at 100 µg/mL (Staphylococcus aureus [1]) [mm]	zone of inhibition at 100 µg/mL (Candida albicans [7]) [mm]	diameter of the inhibition zone (DIZ) (Aspergillus fumigatus [3])	diameter of the inhibition zone (DIZ) (Aspergillus niger [5])	diameter of the inhibition zone (DIZ) (Salmonella typhimurium [4])	further results
CC1=NN(c2ccccc2)C(=O)/C1=C/c1c(C)nn(-c2ccccc2)c1Cl	12	11	12	10	8	inactive						diameter of the inhibition zone (DIZ) (Staphylococcus aureus [1]): inactive
Cc1nn(-c2ccccc2)c(Cl)c1C=C1C(=O)c2ccccc2C1=O	8	10	15	8	17		12	12				
Cc1nn(-c2ccccc2)c(Cl)c1C=C1C(=O)NC(=O)NC1=O	19		12		15	inactive	17		inactive	inactive		
NYSTATIN											inactive	inhibition zone (IZ) (Candida albicans [8]): 20 mm; inhibition zone (IZ) (Aspergillus fumigatus [9]): 18 mm; diameter of the inhibition zone (DIZ) (Staphylococcus aureus [1]): inactive; diameter of the inhibition zone (DIZ) (Bacillus subtilis [2]): inactive; diameter of the inhibition zone (DIZ) (Escherichia coli [6]): inactive; inhibition zone (IZ) (Aspergillus niger [10]): 18 mm
O=C(N[C@H](CO)[C@H](O)c1ccc([N+](=O)[O-])cc1)C(Cl)Cl [CHLORAMPHENICOL]						inactive			inactive	inactive		zone of inhibition at 30 µg/disc (Staphylococcus aureus [11]): 26 mm; zone of inhibition at 30 µg/disc (Salmonella typhimurium [12]): 20 mm; zone of inhibition at 30 µg/disc (Escherichia coli [13]): 25 mm; zone of inhibition at 30 µg/disc (Bacillus subtilis [14]): 24 mm
Cc1nn(-c2ccccc2)c(Cl)c1/C=C1\Sc2ccccc2NC1=O					8		14	15	inactive	inactive	inactive	diameter of the inhibition zone (DIZ) (Bacillus subtilis [2]): inactive
Cc1nn(-c2ccccc2)c(Cl)c1C=C1C(=O)N(C)C(=O)N(C)C1=O	16	11	14	8	15		20	11				
Cc1nn(-c2ccccc2)c(Cl)c1C=C1C(=O)N(C)C(=S)N(C)C1=O	8		17		15		12	16	inactive	inactive		
Cc1nn(-c2ccccc2)c(Cl)c1C=C1C(=O)OC(C)(C)OC1=O	15						19	14	inactive	inactive	inactive	diameter of the inhibition zone (DIZ) (Escherichia coli [6]): inactive
